{
  "source": "patent US6563025B1",
  "about": "“Nucleotide sequences encoding anthranilate synthase” (Board of Trustees of the University of Illinois, priority 1996, dated 2003)",
  "key": {"E. coli trpE5972": {"tested_on": "E. coli trpE5972", "assay": "Complementation and inhibition tests in trpE mutant E. coli", "assay_type": "cell-based", "settings": "no Trp", "method": "The pQES61K was transformed into a trpE nonsense (trpE 5972) mutant E. coli. The trpE nonsense mutant E. coli (trpE 5972) transformed with an expression vector itself (Vector) and the ASA2 cDNA ligated into the expression vector (ASA2) were plated on the M9 minimal medium containing, isopropyl-thiogalactoside (IPTG, 0.1 mM) and ampicillin (100 μg/ml) and either with Trp (+Trp, FIG. 5A) or without Trp (−Trp, FIG. 5B). The complemented strain grew well on M9 medium without Trp and also with 300 μM 5MT (FIG. 5C) which inhibits the growth of the complemented strain carrying feedback-sensitive plant AS (Bohlmann et al., Plant Physiol., 111: 507-514, 1996).\nThe chimeric constructs were transformed into trpE mutant E. coli (trpE5972, nonsense mutant) using CaCl2 transformation (Sambrook et al., 1989, supra). Complemented strains were plated on M9 minimal medium containing ampicillin (100 μg/ml) and isopropylthiogalactoside (IPTG, 0.1 mM), but no Trp. For the inhibition test, 300 μM 5MT was added to the minimal medium described previously. FIGS. 16A and 16B were taken two days after streaking."}, "soybean hairy root lines": {"tested_on": "soybean hairy root lines", "assay": "Quantitative root growth test of soybean hairy root lines with 5MT", "assay_type": "cell-based", "settings": "solid medium, 8 weeks; compared with A. sinicus", "method": "The soybean (cv. Williams 82) cotyledons from 4 to 6-day-old-seedlings were harvested and wounded with a scalpel previously-dipped into an overnight culture of the A. rhizogenes strain K599. Cotyledons were inoculated by cutting the adaxial face several times to form a checked wound site and the abaxial side was placed on sterile distilled water partially immersed filter paper and incubated as described above. Three days after inoculation, cotyledons were transferred to medium containing Murashige and Skoog basal minerals and B5 organics (Gamborg, O. L., et al. Expt. Cell. Res. 50: 148-151, 1968) solidified with 3 g/1 Gellan gum (Kelko, Division of Merck) (MXB medium) in 100×25 mm petri dishes. To inhibit the growth of bacteria and to select transformed roots, 500 mg/l of carbenicillin disodium and 200 mg/l kanamycin were added to the MXB medium. After hairy roots developed from wounded cotyledons,. single root tips (2-3 cm) were excised and used to establish bacteria-free root clones by subculture to fresh MXB solid medium grown at 28° C. in the dark. […]\nLarge numbers of kanamycin resistant root lines were produced from soybean cotyledons transformed with pBIN-ASA2 and a quantitative root growth test was also performed to assess the extent of 5MT resistance of the transformed hairy root lines. […]"}, "A. sinicus seedlings": {"tested_on": "A. sinicus seedlings", "assay": "Direct selection of hairy root lines from A. sinicus seedlings", "assay_type": "cell-based", "method": "Four to seven day old seedlings of A. sinicus with roots removed were then fully immersed in the 1 day cultured bacterial suspension in a petri dish for 10 min, wiped with sterilized filter paper and then placed on partially water immersed filter paper and incubated under 16 h light ([…] m-2 s-1, cool white fluorescent lamps). Three days after co-cultivation, plants were transferred to Murashige and Skoog (Murashige, T., & Skoog, F. Physiol. Plant. 15:473-497, 1962), MS, medium solidified with 3g/l Gellan Gum containing 500 mg/l of carbenicillin disodium and 75 mg/l kanamycin.\nSince the A. sinicus hairy root lines initially selected for kanamycin-resistance but which were also transformed with the feedback-insensitive ASA2 cDNA show resistance to growth inhibition by 5MT (FIG. 18), we wanted to determine if direct selection could be done for A. sinicus hairy root line formation on medium containing 5MT (FIGS. 21A and 21B). Transformation of A. sinicus seedlings with DC-AR2 harboring pBIN-ASA2 gave rise to hairy root line formation on medium containing 0, 15, 20, 25, 30 and 40 μM 5MT but inhibition occurred at 50, 75 and 100 μM."}, "[1]": {"tested_on": "A. sinicus hairy root lines", "assay": "Quantitative root growth test of A. sinicus hairy root lines with 5MT", "assay_type": "cell-based", "method": "Hairy roots were weighed to determine fresh weight, and these samples were dried for 12 h at […] before dry weight determination.\nSince expression of the feedback-insensitive ASA2 gene should increase resistance to the Trp analog 5MT as shown previously with E. coli (Song et al., 1998), a quantitative root growth test was used to assess the extent of 5MT resistance of the transformed hairy root lines. Transformed roots were grown for 6 weeks with 0, 10, 15, 20, 25, 30, 40, 50, 75 and 100 μM 5MT in both MS liquid and solid medium, respectively (FIGS. 18A to 18C and FIGS. 19A and 19B)."}, "anthranilate synthase": {"target": "anthranilate synthase", "assay": "AS activity in extracts of A. sinicus hairy root lines, inhibition by Trp", "assay_type": "biochemical", "settings": "control lines; Trp concentration causing 50% inhibition; NH4Cl as second substrate; read-out: apparent Ki for Trp", "method": "Extracts were prepared using a Tenbroeck tissue grinder (Kontes Glass Co., Vineland, N.J.), and the ASA1 extraction buffer (2 ml/g tissue) described by Bernasconi and coworkers (Bernasconi, P., et al., Plant Physiol., 106: 353-358, 1994). After removal of cellular debris by centrifugation (10 min at 35,000 × g and 4° C.), one volume of the supernatant was combined with two volumes of room temperature saturated (NH4)2SO4, and then centrifuged as before. The resulting pellet was resuspended in extraction buffer (1 ml/g tissue) and used immediately. When glutamine was used as the second substrate for the AS catalyzed reaction, the resuspended enzyme solution was desalted using Sephadex G25 to remove residual (NH4)2SO4.\nAS activity was measured as described in Song et al. (1998, supra) except the assay buffer was that described by Bernasconi et al. (1994, supra) without NH4Cl in the buffer. Either 100 mM NH4Cl or 10 mM glutamine was added to the assay mixture to determine α-subunit activity or AS holoenzyme activity, respectively."}, "tobacco ASA2 [2]": {"tested_on": "tobacco ASA2", "assay": "Feedback inhibition assay of tobacco ASA2 expressed in E. coli", "assay_type": "biochemical, N. tabacum", "settings": "partially purified ASA2 expressed in E. coli", "procedure": "The tobacco ASA2 gene was expressed in E. coli strain trpE5972, a mutant line containing a nonsense trpE gene, grown to late log phase on Luria Bertani medium with 100 μM Trp. Expression was induced by addition of 100 μM isopropylthiogalactoside. A protease inhibitor, 135 μM phenylmethylsulfonylfluoride (PMSF), was added with further incubation for three hours at 30° C., 150 rpm. The cells were collected by centrifugation and resuspended in 50 mM Tris, 5 mM MgCl2, 100 mM NH4Cl, 2 mM dithiothreitol, 20% glycerol, pH 8.0 plus 100 μM PMSF and disrupted using a French press (2 passes, 20,000 psi). Cell debris was removed by centrifugation and the supernatant treated with Ni-affinity resin. Bound protein was eluted with 100 μM imidazole in pH 6.3 buffer."}, "tobacco ASA2 [3]": {"target": "tobacco ASA2", "settings": "ASA2 expressed in E. coli; read-out: apparent Ki for Trp; cited from earlier work"}, "AS [4]": {"tested_on": "AS", "assay": "AS activity in extracts of tobacco suspension cultured cells, inhibition by Trp", "assay_type": "biochemical, N. tabacum", "settings": "100 μM Trp; original 5MT-resistant cell lines"}, "Arabidopsis ASA1": {"target": "T1, Arabidopsis ASA1 (Arabidopsis thaliana, UniProt P32068)", "T1 construct": "made in house; host or cells: E. coli JM109", "T1 sequence (P32068 55-595)": "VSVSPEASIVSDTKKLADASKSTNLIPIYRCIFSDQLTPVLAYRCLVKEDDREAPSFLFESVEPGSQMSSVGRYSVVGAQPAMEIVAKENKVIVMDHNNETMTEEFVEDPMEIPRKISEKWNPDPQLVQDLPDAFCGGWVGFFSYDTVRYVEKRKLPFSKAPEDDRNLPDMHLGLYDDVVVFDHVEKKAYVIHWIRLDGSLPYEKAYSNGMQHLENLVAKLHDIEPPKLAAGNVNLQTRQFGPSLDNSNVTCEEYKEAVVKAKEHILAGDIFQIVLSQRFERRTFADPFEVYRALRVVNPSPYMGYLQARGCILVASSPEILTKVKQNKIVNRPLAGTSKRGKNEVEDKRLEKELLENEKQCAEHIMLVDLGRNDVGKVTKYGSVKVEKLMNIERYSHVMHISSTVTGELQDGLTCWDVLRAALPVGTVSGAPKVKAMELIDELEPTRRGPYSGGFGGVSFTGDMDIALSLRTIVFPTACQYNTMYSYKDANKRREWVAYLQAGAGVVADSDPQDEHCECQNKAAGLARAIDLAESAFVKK", "assay": "Feedback inhibition assay of Arabidopsis ASA1 expressed in E. coli", "assay_type": "biochemical, A. thaliana", "settings": "100 μM and lower concentrations of Trp; crude E. coli cell extract", "method": "The tobacco ASA2 gene was expressed in E. coli strain trpE5972, a mutant line containing a nonsense trpE gene, grown to late log phase on Luria Bertani medium with 100 μM Trp. Expression was induced by addition of 100 μM isopropylthiogalactoside. A protease inhibitor, 135 μM phenylmethylsulfonylfluoride (PMSF), was added with further incubation for three hours at 30° C., 150 rpm. The cells were collected by centrifugation and resuspended in 50 mM Tris, 5 mM MgCl2, 100 mM NH4Cl, 2 mM dithiothreitol, 20% glycerol, pH 8.0 plus 100 μM PMSF and disrupted using a French press (2 passes, 20,000 psi). Cell debris was removed by centrifugation and the supernatant treated with Ni-affinity resin. Bound protein was eluted with […] imidazole in pH 6.3 buffer. The Arabidopsis ASA1 gene was similarly expressed except that the E. coli strain JM109 was used and enzyme activity in a crude cell extract without Ni-affinity purification was characterized.\nEnzyme activity was measured with and without Trp in 50 mM Tris, 5 mM M?gCl2, 1 mM EDTA, 100 mM NH4Cl, 2 mM dithiothreitol, 20% glycerol, pH 7.8 plus 100 μM chorismate. Anthranilate produced in; 30 min at 30° C. was extracted using ethyl acetate and fluorescence measured at excitation 340 and emission 400."}, "altered AS": {"target": "altered AS (Arabidopsis thaliana, UniProt P32068, D341N)", "sequence (P32068 55-595 D341N)": "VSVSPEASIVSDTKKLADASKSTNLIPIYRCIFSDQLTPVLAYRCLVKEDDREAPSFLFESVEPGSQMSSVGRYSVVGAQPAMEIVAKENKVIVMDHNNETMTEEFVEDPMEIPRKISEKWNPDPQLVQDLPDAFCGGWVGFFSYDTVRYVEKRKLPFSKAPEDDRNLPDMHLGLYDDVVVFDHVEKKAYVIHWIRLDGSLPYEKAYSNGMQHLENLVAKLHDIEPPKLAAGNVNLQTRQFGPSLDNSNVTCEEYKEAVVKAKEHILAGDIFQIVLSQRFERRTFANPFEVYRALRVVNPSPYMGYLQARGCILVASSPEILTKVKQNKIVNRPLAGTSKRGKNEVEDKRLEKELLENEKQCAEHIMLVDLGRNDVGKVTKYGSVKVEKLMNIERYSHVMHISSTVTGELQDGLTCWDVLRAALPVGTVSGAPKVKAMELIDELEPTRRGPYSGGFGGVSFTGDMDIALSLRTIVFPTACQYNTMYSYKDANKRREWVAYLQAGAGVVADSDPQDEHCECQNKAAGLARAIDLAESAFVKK", "settings": "100 μM Trp; cited from earlier work"}, "AS [5]": {"tested_on": "AS", "settings": "cited from earlier work; for Ki: read-out: apparent Ki for Trp"}, "[6]": {"settings": "seedlings transformed with DC-AR2 harboring pBIN-ASA2"}, "[7]": {"settings": "control hairy root lines, 6 weeks"}},
  "note": "“And” between values parts separate entries of the source, which are not always exact repeats. Identical values can stand only once. “Also recorded” adds a separate entry of the source. Like-named read-outs stand apart in the source and are kept apart here.",
  "data": [
    {"smiles": "Cc1ccc2[nH]cc(C[C@H](N)C(=O)O)c2c1", "note": "[5MT, 5-methyltryptophan]", "values": [
      {"measurement": "Growth on minimal medium with 5MT", "setting": "E. coli trpE5972; site-directed mutagenized ASA2 alone, 10 μM 5MT", "result": "could not grow"},
      {"measurement": "Growth on minimal medium with 5MT", "setting": "E. coli trpE5972; strain transformed with ASA2 cDNA, 300 μM 5MT", "result": "grew well; also recorded: not inhibited"},
      {"measurement": "Growth on minimal medium with 5MT", "setting": "E. coli trpE5972; strain transformed with site-directed mutant (Ser107, Gln108), 300 μM 5MT", "result": "did not grow"},
      {"measurement": "Sensitivity of hairy root lines to 5MT inhibition", "setting": "soybean hairy root lines", "result": "more sensitive to 5MT inhibition than those of A. sinicus"},
      {"measurement": "5MT concentration for effective direct selection of 35S-ASA2 transformed roots", "setting": "A. sinicus seedlings", "result": "15 to 40", "unit": "µM"},
      {"measurement": "5MT concentration at which roots turned brown and died", "setting": "A. sinicus seedlings; control roots, DC-AR2, subculture", "result": "≥ 15", "unit": "µM"},
      {"measurement": "5MT concentration at which no hairy root lines were formed", "setting": "A. sinicus seedlings; control, transformed with DC-AR2", "result": "≥ 25", "unit": "µM"},
      {"measurement": "5MT concentration allowing hairy root line formation", "setting": "A. sinicus seedlings; [6]", "result": "≤ 40", "unit": "µM"},
      {"measurement": "5MT concentration at which inhibition of hairy root formation occurred", "setting": "A. sinicus seedlings; [6]", "result": "≥ 50", "unit": "µM"},
      {"measurement": "5MT concentration inhibiting hairy root growth", "setting": "[1]; [7]", "result": "10 to 20", "unit": "µM"},
      {"measurement": "5MT concentration of almost complete inhibition", "setting": "[1]; [7]", "result": "≥ 30", "unit": "µM"},
      {"measurement": "5MT concentration at which lines turned brown and died", "setting": "[1]; control hairy root lines, liquid medium", "result": "≥ 20", "unit": "µM"},
      {"measurement": "5MT concentration at which lines grew", "setting": "[1]; transformed lines A-7, 8, 9, 10 and 20, liquid medium", "result": "up to 100 μM"},
      {"measurement": "5MT concentration at which lines are able to grow", "setting": "[1]; transformed lines A-7, 8, 9, 10 and 20, maximum concentration tested", "result": "up to 100 μM"}
    ]},
    {"smiles": "N[C@@H](Cc1c[nH]c2ccccc12)C(=O)O", "note": "[Trp, tryptophan]", "values": [
      {"measurement": "Ki", "setting": "anthranilate synthase", "result": "2 µM and 3 µM"},
      {"measurement": "AS activity remaining at 100 μM Trp", "setting": "tobacco ASA2 [2]", "result": 50, "unit": "%"},
      {"measurement": "Ki", "setting": "tobacco ASA2 [3]", "result": 100, "unit": "µM"},
      {"measurement": "enzyme activity of the feedback-insensitive ASA2", "setting": "AS [4]", "result": 50, "unit": "%"},
      {"measurement": "Inhibition of Arabidopsis ASA1 gene product by Trp", "setting": "Arabidopsis ASA1", "result": "completely inhibited"},
      {"measurement": "AS inhibition by Trp", "setting": "altered AS", "result": 95, "unit": "%"},
      {"measurement": "AS activity remaining", "setting": "AS [5]; 900 μM Trp, 5MT-selected tobacco cells overexpressing ASA2, also AB15-12-1", "result": 20, "unit": "%"},
      {"measurement": "Ki", "setting": "AS [5]; extracts of 5MT-resistant tobacco suspension cultured cells", "result": 300, "unit": "µM"},
      {"measurement": "Ki", "setting": "AS [5]; extracts of wild-type tobacco suspension cultured cells", "result": 2, "unit": "µM"}
    ]}
  ]
}
